Test results as given in patent US9695155B2, “Herbicidal substituted pyrimidinyloxy benzene compounds” (E. I. DU PONT DE NEMOURS AND COMPANY, priority 2013, dated 2017).

Columns and labels:
[1] = system: giant foxtail; assay: Test A postemergence; type: in vivo, Setaria faberii
Summary of the method: (§1)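 Greenhouse pot test, loam/sand soil. Formulation: non-phytotoxic solvent mix plus surfactant. Pre: directed spray onto soil after sowing. Post: plants at 1–2 leaf, 2–10 cm. Rated visually vs untreated controls at ~10 d, 0 (no effect) to 100 (complete control).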

[2] = system: pigweed; assay: Test A postemergence; type: in vivo, Amaranthus retroflexus; settings: 0 to 100 scale, 0 no effect, 100 complete control
Summary of the method: as §1

[3] = system: corn; assay: Test A postemergence; type: in vivo, Zea mays
Summary of the method: as §1

[4] = system: giant foxtail; assay: Test C postemergence; type: in vivo, Setaria faberii; settings: for Plant response rating (0 to 100), Foxtail, Giant: 16 g ai/ha, 0 is no effect, 100 is complete control
Summary of the method: (§2)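 Whole-plant greenhouse test with surfactant-containing solvent formulation, applied preemergence to sown loam–sand pots or postemergence to 2–18 cm plants. Scored by eye 13 to 15 days on, 0–100 scale.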

[5] = system: waterhemp; assay: Test C postemergence; type: in vivo, Amaranthus rudis; settings: for Plant response rating (0 to 100), Waterhemp: 16 g ai/ha, 0 is no effect, 100 is complete control
Text: Seeds of plant species selected from blackgrass (Alopecurus myosuroides), Italian ryegrass (Lolium multiflorum), wheat, winter (winter wheat, Triticum aestivum), galium (catchweed bedstraw, Galium aparine), corn (Zea mays), large (Lg) crabgrass (Digitaria sanguinalis), giant foxtail (Setaria faberii), johnsongrass (Sorghum halepense), lambsquarters (Chenopodium album), morningglory (Ipomoea coccinea), yellow nutsedge (Cyperus esculentus), pigweed (Amaranthus retroflexus), ragweed (common ragweed, Ambrosia elatior), soybean (Glycine max), barnyardgrass (Echinochloa crus-galli), oilseed rape (Brassica napus), waterhemp (common waterhemp, Amaranthus rudis), kochia (Kochia scoparia), wild oat (Avena fatua), surinam grass (Brachiaria decumbens), foxtail, green (green foxtail, Setaria viridis), goosegrass (Eleusine indica), bromegrass, downy (downy bromegrass, Bromus tectorum), nightshade (eastern black nightshade, Solanum ptycanthum), cocklebur (common cocklebur, Xanthium strumarium), cupgrass, woolly (woolly cupgrass, Eriochloa villosa), bermudagrass (Cynodon dactylon), sunflower, (common oilseed sunflower, Helianthus annuus), Russian thistle (Salsola kali), and velvetleaf (Abutilon theophrasti) were planted into a blend of loam soil and sand and treated preemergence with test chemicals formulated in a non-phytotoxic solvent mixture which included a surfactant.
At the same time, plants selected from these crop and weed species and also barley, winter (winter barley, Hordeum vulgare), windgrass (Apera spica-venti), chickweed (common chickweed, Stellaria media), deadnettle (henbit deadnettle, Lamium amplexicaule), and canarygrass (littleseed canarygrass, Phalaris minor) were planted in pots containing Redi-Earth® planting medium (Scotts Company, 14111 Scottslawn Road, Marysville, Ohio 43041) comprising spaghnum peat moss, vermiculite, wetting agent and starter nutrients and treated with postemergence applications of test chemicals formulated in the same manner. Plants ranged in height from 2 to 18 cm (1- to 4-leaf stage) for postemergence treatments. Treated plants and controls were maintained in a greenhouse for 13 to 15 days, after which time all species were compared to controls and visually evaluated. Plant response ratings, summarized in Table C, are based on a scale of 0 to 100 where 0 is no effect and 100 is complete control. A dash (-) response means no test result.

[6] = system: lambsquarters; assay: Test C postemergence; type: in vivo, Chenopodium album; settings: for Plant response rating (0 to 100), Lambsquarters: 16 g ai/ha, 0 is no effect, 100 is complete control
Summary of the method: as §2

[7] = system: morningglory; assay: Test C postemergence; type: in vivo, Ipomoea coccinea; settings: for Plant response rating (0 to 100), Morningglory: 16 g ai/ha, 0 is no effect, 100 is complete control
Summary of the method: as §2

[8] = system: pigweed; assay: Test C postemergence; type: in vivo, Amaranthus retroflexus; settings: for Plant response rating (0 to 100), Pigweed: 16 g ai/ha, 0 is no effect, 100 is complete control
Summary of the method: as §2

[9] = system: ragweed; assay: Test C postemergence; type: in vivo, Ambrosia elatior; settings: for Plant response rating (0 to 100), Ragweed: 16 g ai/ha, 0 is no effect, 100 is complete control
Summary of the method: as §2

[10] = system: large (Lg) crabgrass; assay: Test C postemergence; type: in vivo, Digitaria sanguinalis; settings: for Plant response rating (0 to 100), Crabgrass, Large: 16 g ai/ha, 0 is no effect, 100 is complete control
Summary of the method: as §2

[11] = system: soybean; assay: Test C postemergence; type: in vivo, Glycine max; settings: for Plant response rating (0 to 100), Soybean: 16 g ai/ha, 0 is no effect, 100 is complete control
Summary of the method: as §2

[12] = 31 g ai/ha, 0 to 100 scale, 0 no effect, 100 complete control
[13] = 125 g ai/ha, 0 to 100 scale where 0 is no effect and 100 is complete control
[14] = 125 g ai/ha, postemergence, visual rating, scale 0 to 100 (0 no effect, 100 complete control)
[15] = Postemergence, 62 g ai/ha, scale 0 to 100 (0 no effect, 100 complete control)
[16] = 1000 g ai/ha, 0 to 100 scale, 0 no effect, 100 complete control
[17] = 31 g ai/ha, postemergence, visual rating, scale 0 to 100 (0 no effect, 100 complete control), 13 to 15 days

Structure (SMILES) | Plant response rating (0 to 100), Foxtail, Giant ([4]; postemergence) | Plant response rating, Foxtail, Giant [4, 14] | Plant response rating, Foxtail, Giant [4, 15] | Plant response rating (0 to 100), Waterhemp ([5]; postemergence) | Plant response rating, Waterhemp [5, 14] | Plant response rating, Waterhemp [5, 15] | Plant response rating (0 to 100), Lambsquarters ([6]; postemergence) | Plant response rating, Lambsquarters [6, 14] | Plant response rating, Lambsquarters [6, 15] | Plant response rating (0 to 100), Morningglory ([7]; postemergence) | Plant response rating, Morningglory [7, 14] | Plant response rating, Morningglory [7, 15] | Plant response rating (0 to 100), Pigweed ([8]; postemergence) | Plant response rating, Pigweed [8, 14] | Plant response rating, Pigweed [8, 15] | Plant response rating (0 to 100), Ragweed ([9]; postemergence) | Plant response rating, Ragweed [9, 14] | Plant response rating, Ragweed [9, 15] | Plant response rating (0 to 100), Crabgrass, Large ([10]; postemergence) | Plant response rating, Crabgrass, Large [10, 14] | other results
FCc1cccc(Oc2ncc(Br)cn2)c1-n1cc(C(F)(F)F)cn1 [Compound 120] | 5 | 35 | 10 | 75 | 85 | 80 | 55 | 85 | 70 | 20 | 80 | 35 | 40 | 95 | 85 | 10 | 60 | 25 | 5 | 10 | Plant response rating, Foxtail, Giant [1, 12]: 20; Plant response rating, Foxtail, Giant [1, 13]: 70; Plant response rating, Pigweed ([2]; 31 g ai/ha): 60; Plant response rating, Corn [3, 12]: 10; Plant response rating, Corn [3, 13]: 50; Plant response rating, Crabgrass, Large [10, 15]: 10; Plant response rating (0 to 100), Soybean ([11]; postemergence): 30; Plant response rating, Soybean [11, 14]: 80; Plant response rating, Soybean [11, 15]: 30
Fc1cccc(Oc2ncc(Cl)cn2)c1-n1cc(C2CC2)nn1 [Compound 155] | 0 | 25 | 15 | 45 | 98 | 80 | 65 | 98 | 98 | 70 | 85 | 80 | 80 | 98 | 98 | 50 | 85 | 70 | 5 | 15 | Plant response rating, Foxtail, Giant [1, 16]: 100; Plant response rating, Pigweed ([2]; 1000 g ai/ha): 100; Plant response rating, Corn [3, 16]: 100; Foxtail, Giant plant response rating [4, 17]: 5; Waterhemp plant response rating [5, 17]: 65; Lambsquarters plant response rating [6, 17]: 90; Morningglory plant response rating [7, 17]: 80; Pigweed plant response rating [8, 17]: 75; Ragweed plant response rating [9, 17]: 55; Crabgrass, Large plant response rating [10, 17]: 5; Plant response rating, Crabgrass, Large [10, 15]: 5; Plant response rating (0 to 100), Soybean ([11]; postemergence): 5; Soybean plant response rating [11, 17]: 70; Plant response rating, Soybean [11, 14]: 80; Plant response rating, Soybean [11, 15]: 75
